According to patent US9676760B2, “Fused heterocyclic compounds as ion channel modulators” (Gilead Sciences, Inc., priority 2011, dated 2017):

Biological target: wild-type human cardiac sodium channel, hNav1.5 (Homo sapiens, UniProt Q14524)
Assay: Late INa screening assay (QPatch whole cell patch clamp, HEK293)
Format: cell-based
Details: HEK293, percent block of late INa; compound at 1 μM; 10 μM Tefluthrin; read-out: Late INa 1 μM
How it was run: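 HEK293 stably expressing hNav1.5 without beta subunits, recorded at 23-25° C. Late current was induced by 10 μM tefluthrin. Cells were depolarized from −120 mV to −20 mV for 250 ms at 0.1 Hz. Compounds were tested at 1 μM in extracellular solution, with baseline taken in 0Na-ECF; output is percent block of late INa.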

Chain of wild-type human cardiac sodium channel, hNav1.5 (Q14524 whole entry): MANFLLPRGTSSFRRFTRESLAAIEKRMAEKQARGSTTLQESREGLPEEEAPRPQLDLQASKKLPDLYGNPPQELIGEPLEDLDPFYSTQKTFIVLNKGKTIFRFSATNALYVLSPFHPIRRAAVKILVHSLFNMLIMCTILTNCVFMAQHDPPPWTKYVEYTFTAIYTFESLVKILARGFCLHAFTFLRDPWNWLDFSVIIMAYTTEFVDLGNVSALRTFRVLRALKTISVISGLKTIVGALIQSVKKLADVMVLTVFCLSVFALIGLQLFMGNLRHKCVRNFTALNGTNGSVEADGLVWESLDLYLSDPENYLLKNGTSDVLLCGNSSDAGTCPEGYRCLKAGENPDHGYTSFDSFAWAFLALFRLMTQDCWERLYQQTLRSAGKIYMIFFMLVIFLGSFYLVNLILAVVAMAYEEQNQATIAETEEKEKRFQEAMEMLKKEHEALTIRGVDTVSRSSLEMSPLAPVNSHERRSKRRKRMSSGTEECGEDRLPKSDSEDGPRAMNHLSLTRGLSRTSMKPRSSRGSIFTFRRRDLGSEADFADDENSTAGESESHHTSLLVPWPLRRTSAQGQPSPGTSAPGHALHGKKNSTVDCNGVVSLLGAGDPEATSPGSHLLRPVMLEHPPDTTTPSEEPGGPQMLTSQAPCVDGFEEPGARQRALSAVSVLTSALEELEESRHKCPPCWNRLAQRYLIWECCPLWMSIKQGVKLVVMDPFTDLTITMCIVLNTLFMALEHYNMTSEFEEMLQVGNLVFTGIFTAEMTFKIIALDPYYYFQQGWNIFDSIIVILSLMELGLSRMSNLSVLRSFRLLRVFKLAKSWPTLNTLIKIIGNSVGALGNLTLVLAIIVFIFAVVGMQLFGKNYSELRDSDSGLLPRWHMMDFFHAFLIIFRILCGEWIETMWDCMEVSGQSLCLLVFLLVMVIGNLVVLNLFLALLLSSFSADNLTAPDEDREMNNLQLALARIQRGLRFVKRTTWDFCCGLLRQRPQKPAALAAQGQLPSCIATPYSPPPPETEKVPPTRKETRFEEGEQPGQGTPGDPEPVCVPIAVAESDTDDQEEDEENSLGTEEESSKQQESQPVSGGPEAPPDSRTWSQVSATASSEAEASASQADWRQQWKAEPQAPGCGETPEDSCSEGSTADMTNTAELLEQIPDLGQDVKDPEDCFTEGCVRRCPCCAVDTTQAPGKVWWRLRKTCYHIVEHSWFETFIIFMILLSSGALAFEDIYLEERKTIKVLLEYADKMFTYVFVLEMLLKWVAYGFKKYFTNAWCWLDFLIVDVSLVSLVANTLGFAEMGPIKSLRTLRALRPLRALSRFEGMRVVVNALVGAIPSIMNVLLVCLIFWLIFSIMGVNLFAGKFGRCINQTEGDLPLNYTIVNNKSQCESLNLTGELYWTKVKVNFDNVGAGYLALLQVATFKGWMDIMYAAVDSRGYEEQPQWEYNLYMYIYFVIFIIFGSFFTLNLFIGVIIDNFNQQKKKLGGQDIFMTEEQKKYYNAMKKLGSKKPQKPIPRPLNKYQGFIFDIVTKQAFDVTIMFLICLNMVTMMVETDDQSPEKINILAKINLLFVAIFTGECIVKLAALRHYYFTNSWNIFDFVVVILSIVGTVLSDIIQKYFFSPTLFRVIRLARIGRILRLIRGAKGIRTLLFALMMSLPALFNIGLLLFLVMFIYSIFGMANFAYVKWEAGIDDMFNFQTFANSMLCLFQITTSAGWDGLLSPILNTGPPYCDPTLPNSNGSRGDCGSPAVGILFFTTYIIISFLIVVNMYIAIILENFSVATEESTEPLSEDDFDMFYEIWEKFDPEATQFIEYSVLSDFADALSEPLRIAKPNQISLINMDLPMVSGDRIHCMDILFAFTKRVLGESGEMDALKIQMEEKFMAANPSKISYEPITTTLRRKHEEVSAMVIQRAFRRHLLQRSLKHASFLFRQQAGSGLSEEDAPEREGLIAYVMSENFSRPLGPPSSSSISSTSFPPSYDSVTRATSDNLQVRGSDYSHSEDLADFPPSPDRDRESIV

O=C(Cc1ncccn1)N1CCOc2ccc(-c3ccc(C(F)(F)F)cc3)cc2C1 [III-30, 2-(pyrimidin-2-yl)-1-(7-(4-(trifluoromethyl)phenyl)-2,3-dihydrobenzo[f][1,4]oxazepin-4(5H)-yl)ethanone]
inhibition at 1 µM: 16%

Cn1cncc1C(=O)N1CCOc2ccc(-c3ccc(C(F)(F)F)cc3)cc2C1 [III-32, (1-methyl-1H-imidazol-5-yl)(7-(4-(trifluoromethyl)phenyl)-2,3-dihydrobenzo[f][1,4]oxazepin-4(5H)-yl)methanone]
inhibition at 1 µM: 22%

O=C(c1ncc[nH]1)N1CCOc2ccc(-c3ccc(C(F)(F)F)cc3)cc2C1 [III-33, (1H-imidazol-2-yl)(7-(4-(trifluoromethyl)phenyl)-2,3-dihydrobenzo[f][1,4]oxazepin-4(5H)-yl)methanone]
inhibition at 1 µM: 37%

Cn1ccnc1C(=O)N1CCOc2ccc(-c3ccc(C(F)(F)F)cc3)cc2C1 [III-37, (1-methyl-1H-imidazol-2-yl)(7-(4-(trifluoromethyl)phenyl)-2,3-dihydrobenzo[f][1,4]oxazepin-4(5H)-yl)methanone]
inhibition at 1 µM: 41%

C[C@@H]1CN(C(=O)c2ncccn2)Cc2cc(-c3ccc(OC(F)(F)F)cc3)ccc2O1 [III-38, (R)-(2-methyl-7-(4-(trifluoromethoxy)phenyl)-2,3-dihydrobenzo[f][1,4]oxazepin-4(5H)-yl)(pyrimidin-2-yl)methanone]
inhibition at 1 µM: 28%

CC(C)(C)OC(=O)N1CCn2cc(C(=O)N3CCOc4ccc(-c5ccc(C(F)(F)F)cc5)cc4C3)nc2C1 [III-40, tert-butyl 2-(7-(4-(trifluoromethyl)phenyl)-2,3,4,5-tetrahydrobenzo[f][1,4]oxazepine-4-carbonyl)-5,6-dihydroimidazo[1,2-a]pyrazine-7(8H)-carboxylate]
inhibition at 1 µM: 22%

O=C(c1nc[nH]n1)N1CCOc2ccc(-c3ccc(C(F)(F)F)cc3)cc2C1 [III-50, (1H-1,2,4-triazol-3-yl)(7-(4-(trifluoromethyl)phenyl)-2,3-dihydrobenzo[f][1,4]oxazepin-4(5H)-yl)methanone]
inhibition at 1 µM: 24%

Cc1cc(C(=O)N2CCOc3ccc(-c4ccc(OC(F)(F)F)cc4)cc3C2)nn1C [III-58, (1,5-dimethyl-1H-pyrazol-3-yl)(7-(4-(trifluoromethoxy)phenyl)-2,3-dihydrobenzo[f][1,4]oxazepin-4(5H)-yl)methanone]
inhibition at 1 µM: 26%

O=C1c2ccc(-c3cccc(C(F)(F)F)c3)cc2OCCN1Cc1ncccn1 [IV-4, 4-(pyrimidin-2-ylmethyl)-8-(3-(trifluoromethyl)phenyl)-3,4-dihydrobenzo[f][1,4]oxazepin-5(2H)-one]
inhibition at 1 µM: 14%

O=S1(=O)c2cc(-c3ccc(C(F)(F)F)cc3)ccc2OCCN1Cc1ncccn1 [IX-2, 2-((pyrimidin-2-yl)methyl)-8-(4-(trifluoromethyl)phenyl)-3,4-dihydro-2H-benzo[b][1,4,5]oxathiazepin-sulfone]
inhibition at 1 µM: 22%

CC(C)(C)Oc1cc(-c2ccc3c(c2)C(=O)N(Cc2ccccn2)CCO3)ccn1 [VI-4, 7-(2-tert-butoxypyridin-4-yl)-4-(pyridin-2-ylmethyl)-3,4-dihydrobenzo[f][1,4]oxazepin-5(2H)-one]
inhibition at 1 µM: 36%

O=C1c2cc(-c3cnc(N4CCCCC4)nc3)ccc2OCCN1Cc1ncccn1 [VI-11, 7-(2-(piperidin-1-yl)pyrimidin-5-yl)-4-(pyrimidin-2-ylmethyl)-3,4-dihydrobenzo[f][1,4]oxazepin-5(2H)-one]
inhibition at 1 µM: 19%

O=C1c2cc(-c3ccc(C(F)(F)F)cn3)ccc2OCCN1Cc1ccccn1 [VI-26, 4-(pyridin-2-ylmethyl)-7-(5-(trifluoromethyl)pyridin-2-yl)-3,4-dihydrobenzo[f][1,4]oxazepin-5(2H)-one]
inhibition at 1 µM: 28%

CC(C)c1nc(-c2ccc3c(c2)C(=O)N(Cc2ccccn2)CCO3)cs1 [VI-30, 7-(2-isopropylthiazol-4-yl)-4-(pyridin-2-ylmethyl)-3,4-dihydrobenzo[f][1,4]oxazepin-5(2H)-one]
inhibition at 1 µM: 40%

O=C1c2cc(-c3ccc(C4CC4)s3)ccc2OCCN1Cc1ncccn1 [VI-36, 7-(5-cyclopropylthiophen-2-yl)-4-(pyrimidin-2-ylmethyl)-3,4-dihydrobenzo[f][1,4]oxazepin-5(2H)-one]
inhibition at 1 µM: 47%

O=C1c2cc(-c3ccc(C(F)(F)F)s3)ccc2OCCN1Cc1ncccn1 [VI-37, 4-(pyrimidin-2-ylmethyl)-7-(5-(trifluoromethyl)thiophen-2-yl)-3,4-dihydrobenzo[f][1,4]oxazepin-5(2H)-one]
inhibition at 1 µM: 48%

O=C1c2cc(C#Cc3ccccc3)ccc2OCCN1Cc1ncccn1 [VIII-5, 7-(phenylethynyl)-4-(pyrimidin-2-ylmethyl)-3,4-dihydrobenzo[f][1,4]oxazepin-5(2H)-one]
inhibition at 1 µM: 32%

O=C1c2cc(CCc3ccc(C(F)(F)F)cc3)ccc2OCCN1Cc1ccccn1 [VIII-7, 4-(pyridin-2-ylmethyl)-7-(4-(trifluoromethyl)phenethyl)-3,4-dihydrobenzo[f][1,4]oxazepin-5(2H)-one]
inhibition at 1 µM: 59%

O=C1c2cc(CCc3ccc(C(F)(F)F)cc3)ccc2OCCN1Cc1ncccn1 [VIII-8, 4-(pyrimidin-2-ylmethyl)-7-(4-(trifluoromethyl)phenethyl)-3,4-dihydrobenzo[f][1,4]oxazepin-5(2H)-one]
inhibition at 1 µM: 47%

O=C1c2cc(CCc3ccc(C(F)(F)F)cc3)ccc2OCCN1Cc1ncccc1F [VIII-9, 4-((3-fluoropyridin-2-yl)methyl)-7-(4-(trifluoromethyl)phenethyl)-3,4-dihydrobenzo[f][1,4]oxazepin-5(2H)-one]
inhibition at 1 µM: 50%

O=C1c2cc(/C=C/c3ccc(C(F)(F)F)cc3)ccc2OCCN1Cc1ccccc1 [VIII-10, (E)-4-benzyl-7-(4-(trifluoromethyl)styryl)-3,4-dihydrobenzo[f][1,4]oxazepin-5(2H)-one]
inhibition at 1 µM: 25%

O=C1c2cc(CCc3ccc(C(F)(F)F)cc3)ccc2OCCN1Cc1ccccc1 [VIII-11, 4-benzyl-7-(4-(trifluoromethyl)phenethyl)-3,4-dihydrobenzo[f][1,4]oxazepin-5(2H)-one]
inhibition at 1 µM: 42%

O=C1c2cc(-c3ccc(OC(F)(F)F)cc3)ncc2OCCN1Cc1ncccn1 [XII-5, 4-(pyrimidin-2-ylmethyl)-7-(4-(trifluoromethoxy)phenyl)-3,4-dihydropyrido[4,3-f][1,4]oxazepin-5(2H)-one]
inhibition at 1 µM: 25%

O=C1c2cc(-c3ccc(OC(F)(F)F)cc3)ncc2OCCN1CC1CC1 [XII-9, 4-(cyclopropylmethyl)-7-(4-(trifluoromethoxy)phenyl)-3,4-dihydropyrido[4,3-f][1,4]oxazepin-5(2H)-one]
inhibition at 1 µM: 22%

COc1ccnc(CN2CCOc3cnc(-c4ccc(OC(F)(F)F)cc4)cc3C2=O)n1 [XII-14, 4-((4-methoxypyrimidin-2-yl)methyl)-7-(4-(trifluoromethoxy)phenyl)-3,4-dihydropyrido[4,3-f][1,4]oxazepin-5(2H)-one]
inhibition at 1 µM: 26%

O=C1c2cc(Nc3ccc(OC(F)(F)F)cc3)ccc2OCCN1Cc1ncccn1 [XIII-1, 4-(pyrimidin-2-ylmethyl)-7-(4-(trifluoromethoxy)phenylamino)-3,4-dihydrobenzo[f][1,4]oxazepin-5(2H)-one]
inhibition at 1 µM: 16%

O=C1c2cc(Oc3ccc(OC(F)(F)F)cc3)ccc2OCCN1Cc1ncccn1 [XIII-2, 4-(pyrimidin-2-ylmethyl)-7-(4-(trifluoromethoxy)phenoxy)-3,4-dihydrobenzo[f][1,4]oxazepin-5(2H)-one]
inhibition at 1 µM: 19%
